Source: patent US8148388B2, “2,4 (4,6) pyrimidine derivatives” (Janssen Pharmaceutica, N.V., priority 2004, dated 2012)

What was measured:
Format in all cases: biochemical
Lyn (h) = Lyn (h) (Homo sapiens, UniProt P07948); test: Lyn human kinase assay (glass-fiber filter); conditions: test concentration of 10^−6M; for inhibition at 1 µM: read-out: C10 score (inhibition of Lyn human)
Description: (§1) In the glass-fiber filter technology the activity of the kinase of interest is measured using an appropriate substrate that is incubated with the aforementioned kinase protein in the presence of (^33P) radiolabeled ATP. (^33P) Phosphorylation of the substrate is subsequently measured as radioactivity bound on a glass fiber-filter.
(§2) All kinases are pre-diluted to a 10× working concentration prior to addition into the assay. The composition of the dilution buffer for each kinase is detailed below.
In a final reaction volume of […] (h) (5-10 mU) is incubated with 50 mM Tris pH 7.5, 0.1 mM EGTA, 0.1 mM Na3VO4, 0.1% O-mercaptoethanol, 0.1 mg/ml poly(Glu, Tyr) 4:1, 10 mM MgAcetate and [γ-^33P-ATP] (specific activity approx. 500 cpm/pmol, concentration as required). The reaction is initiated by the addition of the MgATP mix. After incubation for 40 minutes at room temperature, the reaction is stopped by the addition of 5 μl of a 3% phosphoric acid solution. 10 μl of the reaction is then spotted onto a Filtennat A and washed three times for 5 minutes in 75 mM phosphoric acid and once in methanol prior to drying and scintillation counting.

Yes (h) = Yes (h) (Homo sapiens, UniProt P07947); test: Yes human kinase assay (glass-fiber filter); conditions: test concentration of 10^−6M; for inhibition at 1 µM: read-out: C11 score (inhibition of Yes human)
Yes (h), sequence (P07947 whole entry): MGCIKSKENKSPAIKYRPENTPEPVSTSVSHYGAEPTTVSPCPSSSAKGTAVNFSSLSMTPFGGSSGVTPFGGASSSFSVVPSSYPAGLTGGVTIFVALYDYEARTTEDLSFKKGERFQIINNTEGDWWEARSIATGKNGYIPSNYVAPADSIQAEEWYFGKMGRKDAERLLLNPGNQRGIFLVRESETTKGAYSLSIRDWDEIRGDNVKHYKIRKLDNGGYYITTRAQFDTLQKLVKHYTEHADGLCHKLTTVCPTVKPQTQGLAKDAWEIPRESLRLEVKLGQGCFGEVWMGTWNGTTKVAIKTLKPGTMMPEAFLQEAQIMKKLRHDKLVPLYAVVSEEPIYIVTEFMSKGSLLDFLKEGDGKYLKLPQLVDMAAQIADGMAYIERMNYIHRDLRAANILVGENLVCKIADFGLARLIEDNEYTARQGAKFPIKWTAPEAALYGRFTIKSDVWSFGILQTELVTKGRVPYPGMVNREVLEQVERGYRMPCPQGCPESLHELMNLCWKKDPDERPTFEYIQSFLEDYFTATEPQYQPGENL
Description: as §1, §2
(§3) In a final reaction volume of 25 μl, Yes (h) (5-10 mU) is incubated with 8 mM MOPS pH 7.0, 0.2 mM EDTA, 0.1 mg/ml poly(Glu, Tyr) 4:1, 10 mM MgAcetate and [γ-^33P-ATP] (specific activity approx. 500 cpm/μmol, concentration as required). The reaction is initiated by the addition of the MgATP mix. After incubation for 40 minutes at room temperature, the reaction is stopped by the addition of 5 μl of a 3% phosphoric acid solution. 10 μl of the reaction is then spotted onto a Filtermat A and washed three times for 5 minutes in 75 mM phosphoric acid and once in methanol prior to drying and scintillation counting.

EGFR (h) = EGFR (h) (Homo sapiens, UniProt P00533); test: EGFR human kinase assay (glass-fiber filter); conditions: test concentration of 10^−6M; for inhibition at 1 µM: read-out: C4 score (inhibition of EGFR human)
EGFR (h), sequence (P00533 25-1210): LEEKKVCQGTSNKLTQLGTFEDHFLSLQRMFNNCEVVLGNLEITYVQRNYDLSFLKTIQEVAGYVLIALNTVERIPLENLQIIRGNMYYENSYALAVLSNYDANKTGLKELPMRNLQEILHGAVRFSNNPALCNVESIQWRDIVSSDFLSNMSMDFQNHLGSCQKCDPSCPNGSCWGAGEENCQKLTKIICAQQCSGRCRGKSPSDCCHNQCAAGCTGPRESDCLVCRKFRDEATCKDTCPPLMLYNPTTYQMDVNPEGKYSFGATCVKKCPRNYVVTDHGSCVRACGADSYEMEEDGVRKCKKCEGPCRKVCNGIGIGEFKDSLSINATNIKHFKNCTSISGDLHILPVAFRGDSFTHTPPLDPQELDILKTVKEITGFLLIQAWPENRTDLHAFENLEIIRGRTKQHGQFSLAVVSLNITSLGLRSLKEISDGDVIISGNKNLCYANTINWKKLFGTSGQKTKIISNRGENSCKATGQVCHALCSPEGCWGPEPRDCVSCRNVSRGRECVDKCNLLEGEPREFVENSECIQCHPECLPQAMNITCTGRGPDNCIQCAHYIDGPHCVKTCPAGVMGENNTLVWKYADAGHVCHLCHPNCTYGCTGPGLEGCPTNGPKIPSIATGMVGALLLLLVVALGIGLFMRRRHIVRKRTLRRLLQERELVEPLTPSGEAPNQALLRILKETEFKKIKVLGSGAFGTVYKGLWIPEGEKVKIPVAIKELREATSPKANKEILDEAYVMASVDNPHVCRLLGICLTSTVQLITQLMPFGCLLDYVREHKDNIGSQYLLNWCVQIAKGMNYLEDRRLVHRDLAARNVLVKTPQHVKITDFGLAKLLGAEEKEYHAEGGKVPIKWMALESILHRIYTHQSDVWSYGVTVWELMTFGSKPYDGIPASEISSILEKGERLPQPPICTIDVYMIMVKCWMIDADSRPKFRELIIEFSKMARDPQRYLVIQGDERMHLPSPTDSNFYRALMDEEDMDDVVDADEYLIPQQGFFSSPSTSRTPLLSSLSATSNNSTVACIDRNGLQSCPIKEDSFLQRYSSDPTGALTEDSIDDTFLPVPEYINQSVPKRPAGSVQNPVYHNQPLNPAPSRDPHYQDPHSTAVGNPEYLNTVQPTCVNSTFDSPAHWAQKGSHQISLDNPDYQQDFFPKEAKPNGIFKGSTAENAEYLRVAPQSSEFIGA
Description: as §1, §2
as §3, with “EGFR” for “Yes”, “EDTA, 10 mM MnCl2,” for “EDTA,”, “cpm/pmol,” for “cpm/μmol,”

Fes (h) = Fes (h) (Homo sapiens, UniProt P07332); test: Fes human kinase assay (glass-fiber filter); conditions: test concentration of 10^−6M; for inhibition at 1 µM: read-out: C4 score (inhibition of Fes human)
Fes (h), sequence (P07332 whole entry): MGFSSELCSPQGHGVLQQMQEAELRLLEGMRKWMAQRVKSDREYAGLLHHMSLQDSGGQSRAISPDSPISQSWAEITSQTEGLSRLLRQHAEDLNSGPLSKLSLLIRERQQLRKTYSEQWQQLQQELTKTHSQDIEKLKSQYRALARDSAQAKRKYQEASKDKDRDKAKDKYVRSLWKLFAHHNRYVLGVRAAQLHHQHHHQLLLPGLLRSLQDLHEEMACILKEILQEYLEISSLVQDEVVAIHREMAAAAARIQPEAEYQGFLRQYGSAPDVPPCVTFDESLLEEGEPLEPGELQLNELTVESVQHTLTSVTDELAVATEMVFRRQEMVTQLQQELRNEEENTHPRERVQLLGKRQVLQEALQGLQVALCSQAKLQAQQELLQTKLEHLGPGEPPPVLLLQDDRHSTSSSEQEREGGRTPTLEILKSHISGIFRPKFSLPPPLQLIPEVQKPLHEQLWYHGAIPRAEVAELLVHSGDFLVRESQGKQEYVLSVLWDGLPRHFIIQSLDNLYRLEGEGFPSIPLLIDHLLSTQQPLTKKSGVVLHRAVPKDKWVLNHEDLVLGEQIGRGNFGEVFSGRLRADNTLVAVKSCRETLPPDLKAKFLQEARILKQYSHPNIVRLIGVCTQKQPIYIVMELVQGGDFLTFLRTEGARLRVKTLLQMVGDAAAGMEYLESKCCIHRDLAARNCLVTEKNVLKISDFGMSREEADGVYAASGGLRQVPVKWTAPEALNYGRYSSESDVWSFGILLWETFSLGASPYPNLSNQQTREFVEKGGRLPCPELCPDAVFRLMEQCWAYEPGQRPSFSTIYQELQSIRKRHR
Description: as §1, §2
as §3, with “Fes” for “Yes”, “cpm/pmol,” for “cpm/μmol,”

cSRC (h) = cSRC (h) (Homo sapiens, UniProt P12931); test: cSRC human kinase assay (glass-fiber filter); conditions: test concentration of 10^−6M
Description: (§4) The in vitro inhibition of a panel of kinases was assessed using either the glass-fiber filter technology as described by Davies, S. P. et al., Biochem J. […] In the glass-fiber filter technology the activity of the kinase of interest is measured using an appropriate substrate that is incubated with the aforementioned kinase protein in the presence of (^33P) radiolabeled ATP. (^33P) Phosphorylation of the substrate is subsequently measured as radioactivity bound on a glass fiber-filter. All kinases are pre-diluted to a 10× working concentration prior to addition into the assay. The composition of the dilution buffer for each kinase is detailed below. […] The reaction is initiated by the addition of the MgATP mix. […] 10 μl of the reaction is then spotted onto a P30 filtermat and washed three times for 5 minutes in 75 mM phosphoric acid and once in methanol prior to drying and scintillation counting.

Abl (h) = Abl (h) (Homo sapiens, UniProt P00519); test: Abl human kinase assay (glass-fiber filter); conditions: test concentration of 10^−6M; for inhibition at 1 µM: read-out: C1 score (inhibition of Abl human)
Abl (h), sequence (P00519 whole entry): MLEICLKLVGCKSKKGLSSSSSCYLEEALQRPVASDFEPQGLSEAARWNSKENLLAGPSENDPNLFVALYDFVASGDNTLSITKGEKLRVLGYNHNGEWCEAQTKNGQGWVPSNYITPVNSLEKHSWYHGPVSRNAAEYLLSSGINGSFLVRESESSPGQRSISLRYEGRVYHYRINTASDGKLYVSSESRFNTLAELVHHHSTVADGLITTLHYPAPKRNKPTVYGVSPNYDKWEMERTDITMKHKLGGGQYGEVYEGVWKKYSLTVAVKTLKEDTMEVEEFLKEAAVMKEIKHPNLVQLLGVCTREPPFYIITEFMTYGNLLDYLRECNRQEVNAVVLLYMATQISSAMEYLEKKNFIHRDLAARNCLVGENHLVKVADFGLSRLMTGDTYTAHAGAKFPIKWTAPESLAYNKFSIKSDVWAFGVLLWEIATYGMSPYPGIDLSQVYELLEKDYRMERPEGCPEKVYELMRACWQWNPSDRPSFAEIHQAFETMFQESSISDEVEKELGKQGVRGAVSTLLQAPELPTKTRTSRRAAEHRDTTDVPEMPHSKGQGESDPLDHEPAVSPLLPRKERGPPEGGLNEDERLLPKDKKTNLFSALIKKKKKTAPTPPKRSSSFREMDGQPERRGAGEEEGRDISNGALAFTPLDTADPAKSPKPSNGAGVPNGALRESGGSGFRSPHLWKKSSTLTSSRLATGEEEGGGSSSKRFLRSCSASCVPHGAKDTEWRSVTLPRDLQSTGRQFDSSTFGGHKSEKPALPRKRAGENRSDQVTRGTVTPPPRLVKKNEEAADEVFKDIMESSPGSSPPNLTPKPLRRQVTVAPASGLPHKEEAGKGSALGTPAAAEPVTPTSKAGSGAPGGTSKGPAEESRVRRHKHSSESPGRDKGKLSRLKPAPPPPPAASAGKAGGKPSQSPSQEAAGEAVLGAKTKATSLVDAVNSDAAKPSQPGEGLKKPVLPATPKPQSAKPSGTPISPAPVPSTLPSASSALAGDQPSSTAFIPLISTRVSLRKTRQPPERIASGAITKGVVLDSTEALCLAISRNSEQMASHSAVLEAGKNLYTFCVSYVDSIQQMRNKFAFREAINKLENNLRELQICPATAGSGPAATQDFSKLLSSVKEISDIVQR
Description: as §1, §2
(specific activity approx. 500 cpm/pmol, concentration as required). The reaction is initiated by the addition of the MgATP mix. After incubation for 40 minutes at room temperature, the reaction is stopped by the addition of 5 μl of a 3% phosphoric acid solution. 10 μl of the reaction is then spotted onto a P30 filtermat and washed three times for 5 minutes in 75 mM phosphoric acid and once in methanol prior to drying and scintillation counting.

Lck (h) = Lck (h) (Homo sapiens, UniProt P06239); test: Lck human kinase assay (glass-fiber filter); conditions: test concentration of 10^−6M; for inhibition at 1 µM: read-out: C9 score (inhibition of Lck human)
Description: as §4, with “below. [table]” for “below.”

Flt3 (h) = Flt3 (h) (Homo sapiens, UniProt P36888); test: Flt3 human kinase assay (glass-fiber filter); conditions: test concentration of 10^−6M; for inhibition at 1 µM: read-out: C6 score (inhibition of Flt3 human)
Description: (§5) The in vitro inhibition of a panel of kinases was assessed using either the glass-fiber filter technology as described by Davies, S. P. et al., Biochem J. (2000), 351; p. 95-105.
as §1, §2
as §3, with “Flt3” for “Yes”, “50 μM […],” for “0.1 mg/ml poly(Glu, Tyr) 4:1,”, “cpm/pmol,” for “cpm/μmol,”, “P30 filtermat” for “Filtermat A”

Fms (h) = Fms (h) (Homo sapiens, UniProt P07333); test: Fms human kinase assay (glass-fiber filter); conditions: test concentration of 10^−6M; read-out: C7 score (inhibition of Fms human)
Fms (h), sequence (P07333 20-972): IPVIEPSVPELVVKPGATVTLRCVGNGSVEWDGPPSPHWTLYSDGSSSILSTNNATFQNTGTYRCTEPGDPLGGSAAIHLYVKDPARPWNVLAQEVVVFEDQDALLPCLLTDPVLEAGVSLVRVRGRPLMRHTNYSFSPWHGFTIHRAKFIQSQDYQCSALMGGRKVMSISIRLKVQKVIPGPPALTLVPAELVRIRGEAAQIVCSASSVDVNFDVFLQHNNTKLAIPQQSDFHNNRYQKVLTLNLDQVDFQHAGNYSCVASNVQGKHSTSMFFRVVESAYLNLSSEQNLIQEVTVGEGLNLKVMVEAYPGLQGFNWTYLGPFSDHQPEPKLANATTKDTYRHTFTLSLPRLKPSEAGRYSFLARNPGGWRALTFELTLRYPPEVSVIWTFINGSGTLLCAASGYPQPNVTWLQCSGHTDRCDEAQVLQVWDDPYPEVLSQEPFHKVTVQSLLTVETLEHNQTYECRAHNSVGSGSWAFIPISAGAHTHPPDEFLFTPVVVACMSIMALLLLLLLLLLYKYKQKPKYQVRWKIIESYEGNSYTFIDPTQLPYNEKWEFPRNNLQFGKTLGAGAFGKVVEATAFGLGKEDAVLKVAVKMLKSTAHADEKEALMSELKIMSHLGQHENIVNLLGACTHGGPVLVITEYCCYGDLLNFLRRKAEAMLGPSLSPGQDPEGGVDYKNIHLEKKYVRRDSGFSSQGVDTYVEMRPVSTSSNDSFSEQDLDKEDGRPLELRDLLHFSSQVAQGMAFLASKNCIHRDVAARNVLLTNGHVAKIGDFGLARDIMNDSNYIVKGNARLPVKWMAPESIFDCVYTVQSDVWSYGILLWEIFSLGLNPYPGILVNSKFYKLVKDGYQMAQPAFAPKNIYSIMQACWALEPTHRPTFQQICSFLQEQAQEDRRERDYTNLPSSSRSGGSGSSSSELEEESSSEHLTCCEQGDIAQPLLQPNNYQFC
Description: as §5, §1, §2
as §3, with “Fms” for “Yes”, “250 μM […],” for “0.1 mg/ml poly(Glu, Tyr) 4:1,”, “cpm/pmol,” for “cpm/μmol,”, “P30 filtermat” for “Filtermat A”

GSK3B (h) = GSK3B (h) (Homo sapiens, UniProt P49841); test: GSK3β human kinase assay (glass-fiber filter); conditions: test concentration of 10^−6M
GSK3B (h), sequence (P49841 whole entry): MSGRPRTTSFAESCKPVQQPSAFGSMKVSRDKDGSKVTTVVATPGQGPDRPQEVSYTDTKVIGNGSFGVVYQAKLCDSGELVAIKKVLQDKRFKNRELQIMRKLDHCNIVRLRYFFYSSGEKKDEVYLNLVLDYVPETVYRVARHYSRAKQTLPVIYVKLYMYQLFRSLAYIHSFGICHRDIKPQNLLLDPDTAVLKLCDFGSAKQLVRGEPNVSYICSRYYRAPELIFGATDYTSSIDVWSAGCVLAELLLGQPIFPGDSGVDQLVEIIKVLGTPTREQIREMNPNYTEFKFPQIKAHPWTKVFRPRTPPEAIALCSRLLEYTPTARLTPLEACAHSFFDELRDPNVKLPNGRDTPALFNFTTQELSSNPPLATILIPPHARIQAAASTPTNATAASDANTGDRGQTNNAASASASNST
Description: as §5, §1, §2
as §3, with “GSK3B” for “Yes”, “20 μM […](p)EDEEE (phospho GS2 peptide),” for “0.1 mg/ml poly(Glu, Tyr) 4:1,”, “cpm/pmol,” for “cpm/μmol,”, “P30 filtermat” for “Filtermat A”, “50” for “75”

Row | SMILES | C11 score (inhibition of Yes human) (Yes (h)) | C4 score (inhibition of EGFR human) (EGFR (h)) | C9 score (inhibition of Lck human) (Lck (h)) | inhibition at 1 µM (Flt3 (h)) [%] | inhibition at 1 µM (Fes (h)) [%] | inhibition at 1 µM (Abl (h)) [%] | inhibition at 1 µM (Fms (h)) [%] | inhibition at 1 µM (Lyn (h)) [%] | inhibition at 1 µM (Yes (h)) [%] | inhibition at 1 µM (EGFR (h)) [%] | inhibition at 1 µM (Lck (h)) [%] | further results
1 | COc1ccc2cc1OCCCNC(=O)[C@H](CC(C)C)NC(=O)Cc1ccc(Cl)cc1Nc1cc(ncn1)N2 [Compound 12, 6, 2:12,8-dimetheno-7H-13,1,3,5,7,17,20-benzoxahexaazacyclotetracosine-18,21-dione, 25-chloro-1,14,15,16,17,19,20,22-octahydro-11-methoxy-19-(2-methylpropyl)-, (19S)-] | 4 (Score 4=>80% inhibition) | 4 (Score 4=>80% inhibition) | 4 (Score 4=>80% inhibition) | – | – | – | – | – | – | – | – | C10 score (inhibition of Lyn human) (Lyn (h)): 4 (Score 4=>80% inhibition); C4 score (inhibition of Fes human) (Fes (h)): 2 (Score 2=30-60% inhibition); C3 score (inhibition of cSRC human) (cSRC (h)): 4 (Score 4=>80% inhibition); C1 score (inhibition of Abl human) (Abl (h)): 2 (Score 2=30-60% inhibition)
2 | O=C1COc2cccc(c2)Nc2nccc(n2)Nc2cccc(c2)CN1 [Compound 23, 18-oxa-2,4,8,15,25-pentaazatetracyclo[17.3.1.1~3,7~.1~9,13~]pentacosa-1(23),3,5,7(25),9,11,13(24),19,21-nonaen-16-one] | – | – | – | 30 to 60 | 10 to 30 | 10 to 30 | – | – | – | – | – | –
3 | N#Cc1cnc2nc1Nc1cccc(c1)C(=O)NCCCCCOc1cccc(c1)N2 [Compound 18, 21-oxa-2,4,8,15,28-pentaazatetracyclo[20.3.1.1~3,7~.1~9,13~]octacosa-1(26),3,5,7(28),9,11,13(27),22,24-nonaene-6-carbonitrile, 14-oxo-] | – | – | – | 30 to 60 | 10 to 30 | 10 to 30 | 30 to 60 | 30 to 60 | 10 to 30 | 10 to 30 | 10 to 30 | –
4 | O=C1CCc2cccc(c2)Nc2cc(ncn2)Nc2cccc(c2)CN2CCN1CC2 [Compound 43, 1,8,10,12,14,23-hexaazapentacyclo[21.2.2.1~3,7~.1~9,13~.1~15,19~]triaconta-3,5,7(30),9,11,13(29),15,17,19(28)-nonaen-22-one] | – | – | – | 30 to 60 | – | – | 30 to 60 | 30 to 60 | 10 to 30 | 30 to 60 | 10 to 30 | –
5 | O=C1NCCCCCCOc2cccc(c2)Nc2ccnc(n2)Nc2cccc1c2 [Compound 21, 14-oxa-2,4,8,21,29-pentaazatetracyclo[21.3.1.1~3,7~.1~9,13~]nonacosa-1(27),3,5,7(29),9,11,13(28),23,25-nonaen-22-one] | – | – | – | 60 to 80 | – | 10 to 30 | 30 to 60 | 10 to 30 | 10 to 30 | – | 30 to 60 | inhibition at 1 µM (cSRC (h); read-out: C3 score (inhibition of cSRC human)): 10 to 30%; inhibition at 1 µM (GSK3B (h); read-out: C8 score (inhibition of GSK3β human)): 10 to 30%
6 | COc1cc2cc(c1)OCCCCCCOc1ccc(Br)cc1Nc1cc(ncn1)N2 [Compound 40, 1H,7H-6,2: 8,12-dimetheno-13,20,1,3,5,7-benzodioxatetraazacyclodocosine, 23-bromo-14,15,16,17,18,19-hexahydro-10-methoxy-] | 4 (Score 4=>80% inhibition) | 4 (Score 4=>80% inhibition) | 1 (Score 1=10-30% inhibition) | – | – | – | – | – | – | – | – | C6 score (inhibition of Flt3 human) (Flt3 (h)): 1 (Score 1=10-30% inhibition); C8 score (inhibition of GSK3β human) (GSK3B (h)): 1 (Score 1=10-30% inhibition)
